According to US6737383B1, “Herbicidal oxadiazolidines” (priority 1999, dated 2004):

Tests used:
smallflower flatsedge = test: Test B flood test smallflower flatsedge; assay type: in vivo, Cyperus difformis
Procedure, shortened: (§1)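 Flood test on plants grown to the 2-leaf stage; treated plants kept in greenhouse twelve to sixteen days, then visually rated against controls on a 0 (no effect) to 10 (complete control) scale.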

corn = test: Test B pre/postemergence corn; assay type: in vivo, Zea mays
Procedure, shortened: (§2)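 Herbicidal effect was estimated by eye on a ten-point control scale after plants spent twelve to sixteen days in a greenhouse following soil or foliar treatment. Foliar sprays targeted plants at one to four leaves; all doses were formulated in a non-phytotoxic solvent with surfactant.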

cocklebur = test: Test B pre/postemergence cocklebur; assay type: in vivo, Xanthium strumarium
Procedure, shortened: as §2

crabgrass = test: Test B pre/postemergence crabgrass; assay type: in vivo, Digitaria sanguinalis
Procedure, shortened: as §2

duck salad = test: Test B flood test duck salad; assay type: in vivo, Heteranthera limosa
Procedure, shortened: as §1

blackgrass = test: Test B pre/postemergence blackgrass; assay type: in vivo, Alopecurus myosuroides
Procedure, shortened: as §2

pigweed = test: Test B pre/postemergence pigweed; assay type: in vivo, Amaranthus retroflexus
Procedure, shortened: as §2

rape = test: Test B pre/postemergence rape; assay type: in vivo, Brassica napus
Procedure, shortened: as §2

wheat = test: Test B pre/postemergence wheat; assay type: in vivo, Triticum aestivum
Procedure, shortened: as §2

sugar beet = test: Test B pre/postemergence sugar beet; assay type: in vivo, Beta vulgaris
Procedure, shortened: as §2

soybean = test: Test B pre/postemergence soybean; assay type: in vivo, Glycine max
Procedure, shortened: as §2

purple nutsedge = test: Test B pre/postemergence purple nutsedge; assay type: in vivo, Cyperus rotundus
Procedure, shortened: as §2

giant foxtail = test: Test B pre/postemergence giant foxtail; assay type: in vivo, Setaria faberii
Procedure, shortened: as §2

rice = test: Test B flood test rice; assay type: in vivo, Oryza sativa
Procedure, shortened: as §1

morningglory = test: Test B pre/postemergence morningglory; assay type: in vivo, Ipomoea hederacea
Procedure, shortened: as §2

velvetleaf = test: Test B pre/postemergence velvetleaf; assay type: in vivo, Abutilon theophrasti
Procedure, shortened: as §2

[1] = Rate 62 g/ha, headed Pre-emergence (flood test species), scale 0 to 10 (0 no effect, 10 complete control)
[2] = Rate 125 g/ha, Pre-emergence, flood test species, scale 0 to 10 where 0 is no effect and 10 is complete control
[3] = Rate 250 g/ha, Pre-emergence, flood-test species, scale 0 to 10, 0 is no effect, 10 is complete control
[4] = Rate 500 g/ha, Pre-emergence, flood test species, scale 0 to 10 (0 no effect, 10 complete control)
[5] = Preemergence, Rate 62 g/ha, scale of 0 to 10 where 0 is no effect and 10 is complete control
[6] = Preemergence, Rate 250 g/ha, scale of 0 to 10 where 0 is no effect and 10 is complete control
[7] = Preemergence, Rate 500 g/ha, scale of 0 to 10 where 0 is no effect and 10 is complete control
[8] = Rate 62 g/ha, Postemergence, scale 0 to 10 (0 no effect, 10 complete control)
[9] = Rate 125 g/ha, Postemergence, scale of 0 to 10 where 0 is no effect and 10 is complete control
[10] = Rate 250 g/ha, Postemergence, scale of 0 to 10 where 0 is no effect and 10 is complete control
[11] = Rate 500 g/ha, Postemergence, scale 0 to 10, 0 no effect, 10 complete control

CCN(C(=O)n1oc(=O)n(Cc2ccco2)c1=O)C1CCCCC1 [Compound 312]
S. Flatsedge plant response rating (smallflower flatsedge; [1]): 0 | S. Flatsedge plant response rating (smallflower flatsedge; [2]): 0 | S. Flatsedge plant response rating (smallflower flatsedge; [3]): 0 | S. Flatsedge plant response rating (smallflower flatsedge; [4]): 0 | Corn plant response rating (corn; [5]): 0 | Corn plant response rating (0 to 10 scale) (corn; Preemergence, Rate 125 g/ha): 0 | Corn plant response rating (corn; [6]): 0 | Corn plant response rating (corn; [7]): 0 | Corn plant response rating (corn; [8]): 0 | Corn plant response rating (corn; [9]): 0 | Plant response rating, Corn (corn; [10]): 0 | Corn plant response rating (corn; [11]): 0 | Cocklebur plant response rating (cocklebur; [5]): 0 | Cocklebur plant response rating (0 to 10 scale) (cocklebur; Preemergence, Rate 125 g/ha): 0 | Cocklebur plant response rating (cocklebur; [6]): 0 | Cocklebur plant response rating (cocklebur; [7]): 0 | Cocklebur plant response rating (cocklebur; [8]): 0 | Cocklebur plant response rating (cocklebur; [9]): 0 | Plant response rating, Cocklebur (cocklebur; [10]): 0 | Cocklebur plant response rating (cocklebur; [11]): 0 | Crabgrass plant response rating (crabgrass; [5]): 0 | Crabgrass plant response rating (0 to 10 scale) (crabgrass; Preemergence, Rate 125 g/ha): 0 | Crabgrass plant response rating (crabgrass; [6]): 0 | Crabgrass plant response rating (crabgrass; [7]): 0 | Crabgrass plant response rating (crabgrass; [8]): 0 | Crabgrass plant response rating (crabgrass; [9]): 0 | Plant response rating, Crabgrass (crabgrass; [10]): 0 | Ducksalad plant response rating (duck salad; [1]): 0 | Ducksalad plant response rating (duck salad; [2]): 0 | Ducksalad plant response rating (duck salad; [3]): 0 | Ducksalad plant response rating (duck salad; [4]): 0 | Blackgrass plant response rating (blackgrass; [5]): 0 | Blackgrass plant response rating (0 to 10 scale) (blackgrass; Preemergence, Rate 125 g/ha): 0 | Blackgrass plant response rating (blackgrass; [6]): 0 | Blackgrass plant response rating (blackgrass; [7]): 0 | Blackgrass plant response rating (blackgrass; [8]): 0 | Blackgrass plant response rating (blackgrass; [9]): 0 | Plant response rating, Blackgrass (blackgrass; [10]): 0 | Blackgrass plant response rating (blackgrass; [11]): 0 | Redroot pigweed plant response rating (pigweed; [5]): 0 | Redroot pigweed plant response rating (0 to 10 scale) (pigweed; Preemergence, Rate 125 g/ha): 0 | Redroot pigweed plant response rating (pigweed; [6]): 0 | Redroot pigweed plant response rating (pigweed; [7]): 0 | Redroot pigweed plant response rating (pigweed; [8]): 0 | Redroot pigweed plant response rating (pigweed; [9]): 0 | Plant response rating, Redroot pigweed (pigweed; [10]): 0 | Rape plant response rating (rape; [5]): 0 | Rape plant response rating (0 to 10 scale) (rape; Preemergence, Rate 125 g/ha): 0 | Rape plant response rating (rape; [6]): 0 | Rape plant response rating (rape; [7]): 0 | Rape plant response rating (rape; [8]): 0 | Rape plant response rating (rape; [9]): 0 | Plant response rating, Rape (rape; [10]): 0 | Wheat plant response rating (wheat; [5]): 0 | Wheat plant response rating (0 to 10 scale) (wheat; Preemergence, Rate 125 g/ha): 0 | Wheat plant response rating (wheat; [6]): 0 | Wheat plant response rating (wheat; [7]): 0 | Wheat plant response rating (wheat; [8]): 0 | Wheat plant response rating (wheat; [9]): 0 | Plant response rating, Wheat (wheat; [10]): 0 | Sugarbeets plant response rating (sugar beet; [5]): 0 | Sugarbeets plant response rating (0 to 10 scale) (sugar beet; Preemergence, Rate 125 g/ha): 0 | Sugarbeets plant response rating (sugar beet; [6]): 0 | Sugarbeets plant response rating (sugar beet; [7]): 0 | Sugarbeets plant response rating (sugar beet; [8]): 0 | Sugarbeets plant response rating (sugar beet; [9]): 0 | Plant response rating, Sugarbeets (sugar beet; [10]): 0 | Soybean plant response rating (soybean; [5]): 0 | Soybean plant response rating (0 to 10 scale) (soybean; Preemergence, Rate 125 g/ha): 0 | Soybean plant response rating (soybean; [6]): 0 | Soybean plant response rating (soybean; [7]): 0 | Soybean plant response rating (soybean; [8]): 2 | Soybean plant response rating (soybean; [9]): 2 | Plant response rating, Soybean (soybean; [10]): 3 | Nutsedge plant response rating (purple nutsedge; [5]): 0 | Nutsedge plant response rating (0 to 10 scale) (purple nutsedge; Preemergence, Rate 125 g/ha): 0 | Nutsedge plant response rating (purple nutsedge; [6]): 0 | Nutsedge plant response rating (purple nutsedge; [7]): 0 | Nutsedge plant response rating (purple nutsedge; [8]): 0 | Nutsedge plant response rating (purple nutsedge; [9]): 0 | Plant response rating, Nutsedge (purple nutsedge; [10]): 0 | Giant foxtail plant response rating (giant foxtail; [5]): 0 | Giant foxtail plant response rating (0 to 10 scale) (giant foxtail; Preemergence, Rate 125 g/ha): 0 | Giant foxtail plant response rating (giant foxtail; [6]): 0 | Giant foxtail plant response rating (giant foxtail; [7]): 0 | Giant foxtail plant response rating (giant foxtail; [8]): 0 | Giant foxtail plant response rating (giant foxtail; [9]): 0 | Plant response rating, Giant foxtail (giant foxtail; [10]): 0 | Rice plant response rating (rice; [1]): 0 | Rice plant response rating (rice; [2]): 0 | Rice plant response rating (rice; [3]): 0 | Rice plant response rating (rice; [4]): 0 | Morningglory plant response rating (morningglory; [5]): 0 | Morningglory plant response rating (0 to 10 scale) (morningglory; Preemergence, Rate 125 g/ha): 0 | Morningglory plant response rating (morningglory; [6]): 0 | Morningglory plant response rating (morningglory; [7]): 0 | Morningglory plant response rating (morningglory; [8]): 0 | Morningglory plant response rating (morningglory; [9]): 0 | Plant response rating, Morningglory (morningglory; [10]): 0 | Velvetleaf plant response rating (velvetleaf; [5]): 0 | Velvetleaf plant response rating (0 to 10 scale) (velvetleaf; Preemergence, Rate 125 g/ha): 0 | Velvetleaf plant response rating (velvetleaf; [6]): 0 | Velvetleaf plant response rating (velvetleaf; [7]): 0 | Velvetleaf plant response rating (velvetleaf; [8]): 0 | Velvetleaf plant response rating (velvetleaf; [9]): 0 | Plant response rating, Velvetleaf (velvetleaf; [10]): 0
